Results published in patent US6387415B1, “Sequestered metal biocides using ionic polymeric stabilizing agents” (Bio-Lab, Inc., priority 1995, dated 2002).
Read-outs that look alike come from different tables or passages of the source.

Columns and labels:
Type in all cases: cell-based
E. Coli = experiment: MIC study against bacteria on microtiter plates; set-up: key: (−) indicates no bacterial growth was seen; (+) indicates bacterial growth was seen
Method: (§1) MIC data gives the minimum concentration of biocide needed to prevent growth of bacteria in a culture. Individual MIC's were determined by screening on microtiter plates. In order to determine the MIC's, 50 μl of phosphate water is added to each row in columns 2-12. Next, 100 μl of a biocide is added to column […]). Fifty microliters of the biocide is removed from column 1 and serially diluted from columns 2-11 using an eight tip pipettor (octapette). Finally, 50 μl of microbial inoculum is added to columns 1-11 (all rows) and column 12 (row A and E only). Column 12 serves as the row for sterility and viability controls. Bacterial inoculua contain about 1×10^9 colony forming units (cfu) per ml are prepared in 1⁄5 strength Nutrient broth. Bacterial microtiter plates are incubated at 37° C. for 48 hours. MIC's are determined by visual observation of the plates.

S. aureus = experiment: MIC study against bacteria on microtiter plates; set-up: key: (−) indicates no bacterial growth was seen; (+) indicates bacterial growth was seen
Method: as §1

Phormidium inudatum = experiment: MIC study against algae (visual growth after two weeks); set-up: key: (−) indicates no algae growth was seen; (+) indicates algae growth was seen
Method: (§2) MIC data gives the minimum concentration of biocide needed to prevent growth of the algae in a culture.
(§3) The MIC studies are performed in sterile glassware using both viability and sterility controls. An algae suspension is added to test tubes containing the appropriate amounts of test biocide and the tubes are incubated for two weeks under fluorescent lights (on a “12 hour on”/“12 hour off” lighting regimen). The cultures are then measured by visual observation to determine the presence of living algae.

Phormidium sp. = experiment: as above; set-up: key: (−) indicates no algae growth was seen; (+) indicates algae growth was seen
Method: as §2, §3

Chlorella sp. = experiment: as above; set-up: key: (−) indicates no algae growth was seen; (+) indicates algae growth was seen
Method: as §2, §3

bacterial growth, MIC results against E. Coli (E. Coli; Silver Conc. 0.39 ppm) | bacterial growth, MIC results against E. Coli (E. Coli; Silver Conc. 1.56 ppm) | bacterial growth, MIC results against E. Coli (E. Coli; Silver Conc. 3.1 ppm) | bacterial growth, MIC results against E. Coli (E. Coli; Silver Conc. 12.5 ppm) | bacterial growth, MIC results against E. Coli (E. Coli; Silver Conc. 25 ppm) | bacterial growth, MIC results against S. aureus (S. aureus; Silver Conc. 0.39 ppm) | bacterial growth, MIC results against S. aureus (S. aureus; Silver Conc. 0.78 ppm) | bacterial growth, MIC results against S. aureus (S. aureus; Silver Conc. 1.56 ppm) | bacterial growth, MIC results against S. aureus (S. aureus; Silver Conc. 12.5 ppm) | bacterial growth, MIC results against S. aureus (S. aureus; Silver Conc. 25 ppm) | SMILES | algae growth, MIC results against Phormidium inudatum (Phormidium inudatum) | algae growth, MIC results against Phormidium sp. (Phormidium sp.) | algae growth, MIC results against Chlorella sp. (Chlorella sp.) | bacterial growth, MIC results against E. Coli (E. Coli) | bacterial growth, MIC results against S. aureus (S. aureus)
+ | + | − | − | − | + | + | − | − | − | [Ag] [Unsequestered Silver] |  |  |  |  | 
 |  |  |  |  |  |  |  |  |  | O=S(=O)([O-])[O-].[Cu+2] [Unsequestered Copper, copper sulfate] | − | − | − | − and + | − and +
